For series [1], the target named is T1, TdT (Bos taurus, UniProt P06526).
T1 construct: purchased
As to the kind of experiment: TdT tailing of 3' recessed-end dsDNA substrate, electrophoresis and silver staining. Format: biochemical. The note with it: 37° C. for 60 minutes; for TdT tailing of 3' recessed-end substrate, alternative ingredients: compared with dATP and Co2+ buffer, FIG. 3. On the procedure:
3′ recessed dsDNA was prepared by annealing 25 μM each of SEQ ID NO: 2 and SEQ ID NO: 3 in Tris-HCl pH 8 (25 mM), NaCl (12.5 mM), and EDTA (0.25 mM). 2.5 pmole of the annealed substrate was incubated in 20 μL of reaction mixtures containing PMSF (0.5 mM), dATP (2 mM), TRITON® X-100 (0.1%), Tris-acetate pH 7.9 (20 mM), and either Mg^2+ or Co^2+ in chloride salt form (M^2+, 0.75 mM) as tailing cofactors, with (+) or without (−) of TdT (0.25 μL) at 37° C. for 60 minutes followed by 75° C. for 20 minutes. Subsequently, all the reactions were loaded for electrophoresis.
5 pmole of the 3′ recessed-end substrate as in Example 2 was incubated in 10 μL of reaction containing HEPES (H) or Tris-acetate (T) pH 7.9 (20 mM), dATP (dA) or dGTP (dG) (2 mM), CoCl2 (Co) or MnCl2 (Mn) (0.75 or 2 mM), DTT (0 or 0.2 mM), and TdT (0 or 0.25 μL) at 37° C. for 60 minutes followed by 75° C. for 20 minutes before loading half of the samples for electrophoresis (FIG. 3).

Series [2] has as its target T1, TdT. As to the kind of experiment: TdT tailing of ssDNA oligo, electrophoresis and silver staining. Format: biochemical. The note with it: dATP 2 mM, FIG. 1. How it is done: 0.5 pmole of an ssDNA oligo (SEQ ID NO: 1) was incubated in 10 μL volumes of various compositions plus dATP (2 mM) and commercial TdT (0.25 μL) at 37° C., 45° C., 55° C., 65° C., 75° C. for 30, 5, 5, 5, 20 minutes, respectively. All the reaction was used for electrophoresis (FIG. 1).

Series [3] has as its system pancreatic nucleases. As to the kind of experiment: RNaseAlert fluorescent assay of nuclease activity in crude pancreatic lysate. Format: biochemical, murine. The note with it: for inhibition of nuclease activity by Cu2+ in the presence of chelators: 2 mM CuSO4 plus 2 mM chelator, FIG. 10. On the procedure: The crude pancreatic lysate was prepared by lyzing 10 mg of murine pancreas in 400 μL of lysis buffer (HEPES pH 7.2 20 mM, NaCl 146 mM, CaCl2 1 mM, MgCl2 21 mM, TWEEN® 20 0.1%, NP-40 0.1%, and digitonin 0.01%). The lysis was performed by bead beating (10 seconds, 4500 rpm) in 2 ml plastic tubes containing 6 glass beads of 2.5-mm diameter. The lysate was subjected to centrifugation at 17,000 RCF for 1 minute before the cleared nuclease-laden supernatant was kept for the assays.
To detect the nuclease activity, an RNaseAlert™ oligo made of chimeric DNA-RNA-DNA with a green fluorescence molecule on one end and a quencher on the other (50 nM) was used in 25 μL final reaction volume. The reactions were conducted in the pancreatic lysis buffer with a final volume of 25 μL, containing the specified additives (pancreatic lyate, CuSO4, or ZnSO4) in FIG. 5. After incubating at ambient temperature for 30 minutes, the reactions were diluted with 150 μL of the same buffer, excluding substrates and the lysate. Fluorescence detection was performed in triplicate, with excitation at 490 nm and emission at 520 nm.
The RNaseAlert™ oligo (50 nM) was prepared in pancreatic lysis buffer with a final volume of 25 μL, containing the specified additives (pancreatic lysate, CuSO4, or Cu^2+-citric acid at various concentrations) in FIG. 7. After incubating at ambient temperature for 30 minutes, the reactions were diluted to 150 μL with the same buffer, excluding substrates and lysate, for fluorescence quantification in triplicate of 50 μL.
The RNaseAlert™ oligo (50 nM) was prepared in pancreatic lysis buffer, either HEPES-SO4 at pH 4.5 or HEPES at pH 7.2, with a final volume of 25 μL, containing the specified additives (pancreatic lysate, Cu^2+, or chelators) and pH levels (pH 4.5 or 7.2) in FIG. 8. After incubating at ambient temperature for 30 minutes, the reactions were diluted to 150 μL with the same buffer, excluding substrates and lysate, for fluorescence quantification in triplicate of 50 μL.
The RNaseAlert™ oligo (50 nM) was prepared in the pancreatic lysis buffer to a final volume of 25 μL, containing the specified additives (pancreatic lysate, 2 mM CuSO4, or 2 mM of various chelators), as shown in FIG. 10. After incubating at ambient temperature for 30 minutes, the reactions were diluted to 150 μL with the same buffer, excluding substrates and lysate, for fluorescence quantification in triplicate of 50 μL.
The RNaseAlert™ oligo (50 nM) was prepared in either the pancreatic lysis buffer (Buffer P) or a low-pH buffer (Buffer C, composed of 25 mM citrate at pH 3 and 250 mM sucrose) to a final volume of 25 μL. The preparation contained the specified additives (pancreatic lysate, 1% DEPC, and Cu^2+-citric acid at specified concentrations) and is depicted in FIG. 11. After incubating at ambient temperature for 30 minutes, the reactions were diluted to 150 μL with the same buffer, excluding substrates and lysate, for fluorescence quantification in triplicate of 50 μL.

Series [4] is described as follows: Precipitation by optical density at 600 nm, with or without bovine serum albumin. The note with it: for protein aggregation / precipitation with bovine serum albumin (visual and OD600): BSA 10 g/L, pH 4.5, 5.5 and 7.2, FIG. 6. Format: physicochemical. On the procedure:
A total of 180 μL of reactions per well were prepared at ambient temperature in a 96-well plate. These reactions contained various buffers (none or 100 mM) at specified pH levels, Cu^2+ salts in either sulfate (no pH adjustment) or citrate form (at pH 4.5 or 7.2, as specified) at the indicated concentrations, and bovine serum albumin (10 g/L final concentration) in FIG. 6. The reactions were prepared in triplicate, photographed directly (FIG. 6, lower), and measured for optical density at 600 nm (FIG. 6, upper) to indicate precipitation.

Series [5] deals with benzonase (Serratia marcescens, UniProt P13717). As to the kind of experiment: RNaseAlert fluorescent assay with benzonase. It counts as biochemical. The note with it: benzonase 20 units, 10 minutes at ambient temperature, FIG. 9. How it is done:
(§1) The RNaseAlert™ oligo (50 nM) was prepared in pancreatic lysis buffer with a final volume of 25 μL, containing the specified additives (pancreatic lysate, Cu^2+-citric acid, or various nucleases) in FIG. 9. After incubating at ambient temperature for 10 minutes, the reactions were diluted to 150 μL with the same buffer, excluding substrates and lysate, for fluorescence quantification in triplicate of 50 μL.

For series [6], the system named is pancreatic nuclease. As to the kind of experiment: RT-qPCR of nuclear mRNA (GAPDH, PSMB4) in HEK293 nuclei exposed to pancreatic lysate. The note with it: 10 mM complex, pH 4.5 and 7.2, HEK293 nuclei, FIG. 12. Format: biochemical, murine. On the procedure: To mimic nuclear extraction by direct lysis of challenging organs, HEK293 cells were lysed in the presence of nuclease-rich pancreatic lysate, with or without the Cu^2+-chelator complex: Thirty μL of pancreatic lysis buffer containing 50 mM HEPES at pH 4.5 or 7.2, 1× Halt proteinase inhibitor, 2 μL of pancreatic lysate, and either 0 mM (control) or 10 mM of Cu^2+-citric acid complex from 250 mM stock solutions (at pH 4.5 and 7.2, respectively) were prepared on ice. 20,000 HEK293T cells in 2 μL of PBS were added to the lysis buffer, and the nuclei were released by rotating the cells in the fridge for 15 minutes. The nuclear pellets were obtained by centrifugation in a swing-bucket rotor at 1,000 g for 1 minute, washed twice with the same buffers excluding HALT, with the detergent in the wash buffer removed and replaced with 0.05% PVA. The washed nuclei were lysed with 15 μL of lysis buffer containing 0.2% TX-100 and […] proteinase K by vortexing at 1,200 rpm for 30 minutes at 37° C. The lysate was divided equally into 20 μL RT reactions, each containing RNA lysates, 0.2 μL of PMSF (50 mM in DMSO), 1× RT buffer (Tris-HCl pH 8.3, 50 mM; KCl, 75 mM; MgCl2, 3 mM; DTT, 5 mM), dNTPs (final concentration 0.5 mM each), homemade rat RNase inhibitor (100 ng), PVA (0.05%), T23VN (1 μM), and either 0 (for genomic DNA control) or 100 ng of homemade reverse transcriptase. […]
A general note: In qPCR the cycle at which signal appears reflects the starting amount.

The target of series [7] is micrococcal nuclease (Staphylococcus aureus, UniProt P00644). As to the kind of experiment: RNaseAlert fluorescent assay with micrococcal nuclease. It counts as biochemical. The note with it: micrococcal nuclease 200 gel units, 10 minutes at ambient temperature, FIG. 9. How it is done: as §1
Series [8] addresses T2, RNase A (Bos taurus, UniProt P61823).
T2 sequence (P61823 27-150): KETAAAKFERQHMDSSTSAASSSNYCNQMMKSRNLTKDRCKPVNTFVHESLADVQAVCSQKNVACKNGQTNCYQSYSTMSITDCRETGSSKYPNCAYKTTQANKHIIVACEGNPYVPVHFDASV
As to the kind of experiment: RNaseAlert fluorescent assay with RNase A. It counts as biochemical. The note with it: RNase A 50 ng, 10 minutes at ambient temperature, FIG. 9. On the procedure: as §1

T1 sequence (P06526 whole entry): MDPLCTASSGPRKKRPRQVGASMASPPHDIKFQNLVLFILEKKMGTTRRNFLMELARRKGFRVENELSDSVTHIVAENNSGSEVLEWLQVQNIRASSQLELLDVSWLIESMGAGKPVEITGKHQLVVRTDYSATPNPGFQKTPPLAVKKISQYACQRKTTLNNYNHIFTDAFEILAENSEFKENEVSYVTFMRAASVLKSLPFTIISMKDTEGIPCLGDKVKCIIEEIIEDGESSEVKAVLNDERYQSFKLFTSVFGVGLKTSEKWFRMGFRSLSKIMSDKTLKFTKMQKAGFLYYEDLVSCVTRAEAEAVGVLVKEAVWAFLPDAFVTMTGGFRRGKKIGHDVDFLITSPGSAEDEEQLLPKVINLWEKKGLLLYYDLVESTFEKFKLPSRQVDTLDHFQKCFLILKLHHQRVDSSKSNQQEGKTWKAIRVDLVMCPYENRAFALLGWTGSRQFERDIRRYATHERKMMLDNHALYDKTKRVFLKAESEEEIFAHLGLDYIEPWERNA
Sequence of benzonase (P13717 22-266): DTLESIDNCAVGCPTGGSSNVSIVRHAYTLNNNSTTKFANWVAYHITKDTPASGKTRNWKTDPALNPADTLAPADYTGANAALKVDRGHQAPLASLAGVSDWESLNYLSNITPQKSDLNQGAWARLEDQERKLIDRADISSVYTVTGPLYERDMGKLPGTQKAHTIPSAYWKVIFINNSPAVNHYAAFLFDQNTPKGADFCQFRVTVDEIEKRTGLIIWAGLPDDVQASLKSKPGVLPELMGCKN

Take `O[C@H](CS)[C@H](O)CS` (racemic) [DTT, dithiothreitol]: in series [1], the “TdT tailing of 3' recessed-end substrate, alternative ingredients” value (from here on “TdT tailing … alternative ingredients”) is “does not affect the results”.

In the case of `[Cl][Co][Cl]` [Co^2+, cobalt chloride], the “TdT tailing of 3' recessed-end substrate, Co2+ versus Mg2+” value in series [1] (M2+ 0.75 mM, dATP 2 mM, FIG. 2) is on record as “nearly complete upshift of the substrate”. The “TdT poly(dA) tailing of ssDNA substrate” value in series [2] was “could replace Mg^2+ for tailing the ssDNA”.

On to `O=C(O)CN(CC(=O)O)CC(=O)O.[Cu]` [Cu^2+ with nitrilotriacetic acid (NTA), copper; 2-[bis(carboxylatomethyl)amino]acetate;hydron], for which, in series [3] (30 minutes), the “inhibition of nuclease activity by Cu2+ in the presence of chelators” value is “still inhibited nuclease activity”.

In the case of `O=S(=O)([O-])[O-].[Cu+2]` [Cu^2+, CuSO4], in series [3] (CuSO4 in pancreatic lysis buffer pH 7.2, 30 minutes at ambient temperature, FIG. 5), the “nuclease activity in pancreatic lysate” value is recorded as “effectively diminished the nuclease activity”. For the same molecule, in series [4], the “protein aggregation / precipitation with bovine serum albumin (visual and OD600)” value was “severe protein aggregation at pH above 5.5”. In addition, in series [4] (neutral pH, no protein, concentrations as low as 1 mM, FIG. 6), the “solubility in water (precipitation, OD600)” value is listed as “only minimally soluble”.

For the molecule `O=C(O)CC(O)(CC(=O)O)C(=O)O.[Cu].[Cu]` [Cu^2+-citric acid complex, dicopper; 2-hydroxypropane-1,2,3-tricarboxylic acid], in series [3] (30 minutes), the “inhibition of nuclease activity by Cu2+ in the presence of chelators” value is “still inhibited nuclease activity”. Besides, the “RNase inhibition compared with low-pH buffer and DEPC” value in series [3] (10 mM complex, 30 minutes, FIG. 11) is on record as “comparable RNase inhibition to the low-pH buffer”. For the same molecule, the “nuclease-blocking activity at acidic and neutral pH” value in series [3] (pH 4.5 and pH 7.2, FIG. 8) is “active at both acidic and neutral pH”. Moreover, in series [3] (various concentrations, 30 minutes at ambient temperature, FIG. 7), the “blocking of pancreatic nuclease activity, chelated versus unchelated Cu2+” value is “still capable of blocking pancreatic nuclease activity in a dose-dependent manner, similar or even more potent to the unchelated form”. The “blocking of benzonase activity” value in series [5] is on record as “capable of blocking the activities”. In addition, the “protection of nuclear RNA from degradation by pancreatic nuclease” value in series [6] was “necessary to protect and retain nuclear RNA from complete degradation”. Further, the “blocking of micrococcal nuclease activity” value in series [7] is “capable of blocking the activities”. In addition, the “protein aggregation / precipitation with bovine serum albumin (visual and OD600)” value in series [4] is on record as “resolved this issue at all pH values tested”. Moreover, in series [8], the “blocking of RNase A activity” value was “capable of blocking the activities”.

On to `CC(=O)[O-].[K+]` [K^+, potassium acetate], for which the “TdT poly(dA) tailing of ssDNA substrate” value in series [2] was “detrimental to tailing”.

Take `CC(=O)[O-].CC(=O)[O-].[Mg+2]` [Mg^2+, magnesium acetate]: the “TdT poly(dA) tailing of ssDNA substrate” value in series [2] is on record as “yielded shorter tails”.

For the molecule `[Cl][Mn][Cl]` [Mn^2+, MnCl2], the “TdT tailing … alternative ingredients” value in series [1] was “not to improve”.

`Nc1nc2c(ncn2[C@H]2C[C@H](O)[C@@H](COP(=O)(O)OP(=O)(O)OP(=O)(O)O)O2)c(=O)[nH]1` [dGTP]: the “TdT tailing … alternative ingredients” value in series [1] is “detrimental”.

The values above are taken from patent US20250263686A1, “METHODS OF INHIBITING NUCLEASE ACTIVITY, METHODS OF ISOLATING NUCLEI FROM CELLS, AND METHODS FOR EXTENDING DNA” (NATIONAL CHENG KUNG UNIVERSITY, priority 2024, published 2025).
